Values quoted from earlier work, collected in US20200129524A1, “PERSONALIZED CONTRACEPTIVE FORMULATIONS” (Agile Therapeutics, Inc., priority 2017, published 2020).

Biological target: T1, SHBG (Homo sapiens, UniProt P04278)
T1 sequence (P04278 30-402): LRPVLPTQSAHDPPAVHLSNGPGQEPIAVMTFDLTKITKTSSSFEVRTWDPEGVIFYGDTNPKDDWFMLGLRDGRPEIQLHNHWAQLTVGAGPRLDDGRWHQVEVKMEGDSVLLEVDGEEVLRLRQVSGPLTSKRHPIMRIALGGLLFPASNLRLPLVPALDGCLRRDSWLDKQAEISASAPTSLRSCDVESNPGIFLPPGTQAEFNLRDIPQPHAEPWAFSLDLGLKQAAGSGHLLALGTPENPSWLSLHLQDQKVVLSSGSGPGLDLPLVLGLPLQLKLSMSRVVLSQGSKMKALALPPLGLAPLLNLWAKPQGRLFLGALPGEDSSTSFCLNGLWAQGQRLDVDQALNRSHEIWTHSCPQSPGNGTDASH
Conditions: testosterone being 100; cited from earlier work

C[C@]12CC[C@H]3[C@@H](CCC4=CC(=O)CC[C@@]43C)[C@@H]1CC[C@@H]2O [testosterone]
relative binding affinity to SHBG: 100%
